Laboratory results reported in ChEMBL document CHEMBL1129522, “Inhibitors of acyl-CoA:cholesterol O-acyltransferase. 17. Structure-activity relationships of several series of compounds derived from N-chlorosulfonyl isocyanate” (J Med Chem, 1996).
“And” between values parts separate entries of the source, which are not always exact repeats. Equal entries are not always repeated.

Legend:
[1] = biological target: T1, Sterol O-acyltransferase 1 (Rattus norvegicus) (UniProt O70536); assay: Chronic in vivo activity was measured by the concentration of high density lipoproteins (HDL) in cholesterol fed rats; format: functional, organism-based
T1 sequence (whole entry): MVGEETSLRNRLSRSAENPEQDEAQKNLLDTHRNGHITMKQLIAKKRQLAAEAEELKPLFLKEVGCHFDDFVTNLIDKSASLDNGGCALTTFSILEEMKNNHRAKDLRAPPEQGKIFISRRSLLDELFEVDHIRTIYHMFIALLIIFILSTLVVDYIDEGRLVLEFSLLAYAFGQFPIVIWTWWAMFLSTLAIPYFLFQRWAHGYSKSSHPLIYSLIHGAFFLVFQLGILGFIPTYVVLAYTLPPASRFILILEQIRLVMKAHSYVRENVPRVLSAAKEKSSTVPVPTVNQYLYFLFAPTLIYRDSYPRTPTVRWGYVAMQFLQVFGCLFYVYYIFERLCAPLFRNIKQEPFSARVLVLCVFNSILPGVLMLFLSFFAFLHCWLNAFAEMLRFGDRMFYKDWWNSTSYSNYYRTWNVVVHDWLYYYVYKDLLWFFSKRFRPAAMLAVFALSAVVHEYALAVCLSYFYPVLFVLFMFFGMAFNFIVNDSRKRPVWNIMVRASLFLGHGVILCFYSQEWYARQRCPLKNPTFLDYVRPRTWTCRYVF

[2] = biological target: T1, Sterol O-acyltransferase 1 (Rattus norvegicus); assay: Chronic in vivo activity was measured by the total cholesterol concentration levels in cholesterol fed rats; format: functional, organism-based
[3] = biological target: T1, Sterol O-acyltransferase 1 (Rattus norvegicus); assay: Acute in vivo activity was measured by the total plasma cholesterol concentration levels(TC) at dose 50 mg/kg; format: functional, organism-based; set-up: dose 50 mg/kg
[4] = biological target: T2, Sterol O-acyltransferase 1 (Rattus norvegicus, UniProt O70536); assay: In vitro inhibitory activity against acyl coenzyme A:cholesterol acyltransferase 1 in microsomes of rat liver
T2 sequence (O70536 whole entry): T1 sequence (whole entry)

[5] = biological target: T1, Sterol O-acyltransferase 1 (Rattus norvegicus); assay: Acute in vivo activity was measured by the total plasma cholesterol concentration levels(TC) at dose 3 mg/kg; format: functional, organism-based; set-up: dose 3 mg/kg
[6] = system: Rattus norvegicus; assay: Acute in vivo activity measured by total plasma cholesterol concentration levels (TC) at 30 mg/kg dose; format: functional
[7] = biological target: T1, Sterol O-acyltransferase 1 (Rattus norvegicus); assay: Chronic in vivo activity was measured by the total cholesterol concentration levels in Cholesterol-Fed Rats; format: functional, organism-based

| SMILES | Delta HDL [1] | Delta TC [2] | Delta TC [3] | IC50 [4] | Delta TC [5] | Delta TC [6] | Delta TC [7] |
| --- | --- | --- | --- | --- | --- | --- | --- |
| Cc1cc(C(C)(C)C)c(OC(=O)NS(=O)(=O)Nc2c(C(C)C)cccc2C(C)C)c(C(C)(C)C)c1 | 156% | -38% | -56% | 13.5 µM |  |  |  |
| CC(C)c1cccc(C(C)C)c1NC(=O)NS(=O)(=O)NCC(c1ccccc1)c1ccccc1 |  |  | -20% | 5.9 µM |  |  |  |
| Cc1cc(C(C)(C)C)c(OC(=O)NS(=O)(=O)Nc2ccccc2)c(C(C)(C)C)c1 |  |  | -33% | 23.4 µM |  |  |  |
| Cc1cc(C(C)(C)C)c(OC(=O)NS(=O)(=O)NCC(c2ccccc2)c2ccccc2)c(C(C)(C)C)c1 | 144% | -51% | -54% | 24.4 µM |  |  |  |
| CC(C)c1cccc(C(C)C)c1OC(=O)NS(=O)(=O)Nc1ccccc1 | 240% | -33% | -55% | 38.1 µM |  |  |  |
| COc1cc(C(C)C)c(OC(=O)NS(=O)(=O)Oc2c(C(C)C)cccc2C(C)C)c(C(C)C)c1 | 8% | -12% |  | > 25 µM | 1% | -56% |  |
| CC(C)c1cccc(C(C)C)c1NC(=O)NS(=O)(=O)Nc1c(C(C)C)cccc1C(C)C | 80% | -37% | -54% | 11 µM |  |  |  |
| CC(C)c1cccc(C(C)C)c1OS(=O)(=O)NC(=O)Oc1c(C(C)(C)C)cc(C(C)(C)C)cc1C(C)(C)C | 108% | -78% |  | 26 µM | -69% | -76% |  |
| CC(C)c1cccc(C(C)C)c1OC(=O)NS(=O)(=O)NC(c1ccccc1)c1ccccc1 |  |  | 46% | 10.6 µM |  |  |  |
| CC(C)c1cc(C(C)(C)C)cc(C(C)C)c1OC(=O)NS(=O)(=O)Oc1c(C(C)C)cccc1C(C)C | 177% | -72% |  | 8.8 µM | -55% | -58% |  |
| CC(C)c1cccc(C(C)C)c1NC(=O)NS(=O)(=O)NC1c2ccccc2-c2ccccc21 |  |  | -4% | 25 µM |  |  |  |
| CC(C)c1cc(C(C)C)c(OC(=O)NS(=O)(=O)Oc2c(C(C)C)cccc2C(C)C)c(C(C)C)c1 | 153% | -74% |  | 14 µM | -57% | -79% |  |
| CCCCCCCCN(CCCCCCCC)S(=O)(=O)NC(=O)Nc1c(C(C)C)cccc1C(C)C | 150% | -56% |  | 1.9 µM | -38% | -53% |  |
| Cc1cc(C(C)(C)C)c(OC(=O)NS(=O)(=O)NC(c2ccccc2)c2ccccc2)c(C(C)(C)C)c1 | 100% | -25% | -42% | 11.5 µM |  |  |  |
| CCCCN(CCCC)S(=O)(=O)NC(=O)Nc1c(C(C)C)cccc1C(C)C |  | -52% and -40% | -66% |  | -64% and -52% |  |  |
| CC(C)c1cccc(C(C)C)c1OS(=O)(=O)NC(=O)Oc1c(C(C)C)c(C(C)C)c(F)c(C(C)C)c1C(C)C | 208% | -74% |  | 13 µM | -47% | -71% |  |
| CCCCCCCCCCCCOS(=O)(=O)NC(=O)Oc1c(C(C)C)cccc1C(C)C | 31% | -56% |  | 13 µM | -63% | -68% |  |
| CCCCCCCCCCCCOS(=O)(=O)NC(=O)Oc1c(C(C)(C)C)cc(C)cc1C(C)(C)C | 23% | -33% |  | 52 µM | -41% | -65% |  |
| CC(C)(C)c1cccc(C(C)(C)C)c1OC(=O)NS(=O)(=O)N(Cc1ccccc1)Cc1ccccc1 |  |  | -3% | 11 µM |  |  |  |
| CC(C)(C)c1cccc(C(C)(C)C)c1OC(=O)NS(=O)(=O)NC(c1ccccc1)c1ccccc1 | 50% |  | -35% | 11.4 µM |  |  | -46% |

| SMILES | Delta HDL [1] | Delta TC [2] | Delta TC [3] | IC50 [4] | Delta TC [5] | Delta TC [6] | Delta TC [7] |
| --- | --- | --- | --- | --- | --- | --- | --- |
| CC(C)c1cccc(C(C)C)c1NC(=O)NS(=O)(=O)N(Cc1ccccc1)C(C)C | 150% | -41% | -60% | 0.4 µM |  |  |  |
| CC(C)c1cccc(C(C)C)c1OS(=O)(=O)NC(=O)Oc1c(C(C)(C)C)cccc1C(C)(C)C | 25% | -64% |  | 12 µM | -50% | -70% |  |
| CC(C)c1cc(O)cc(C(C)C)c1OC(=O)NS(=O)(=O)Oc1c(C(C)C)cccc1C(C)C | 95% | -25% |  | > 50 µM | -5% | -55% |  |
| CC(C)c1cc(C(C)C)c(NC(=O)NS(=O)(=O)Oc2c(C(C)C)cccc2C(C)C)c(C(C)C)c1 | 18% | -59% |  | 23 µM | -51% | -68% |  |
| CC(C)c1cccc(C(C)C)c1NC(=O)NS(=O)(=O)NC(c1ccccc1)c1ccccc1 |  |  | -14% | 4.1 µM |  |  |  |
| CC(C)c1cccc(C(C)C)c1OC(=O)NS(=O)(=O)NCC(c1ccccc1)c1ccccc1 |  |  | -29% | 49 µM |  |  |  |
| CC(C)c1cccc(C(C)C)c1NC(=O)NS(=O)(=O)N(C(C)C)C(C)C | 83% | -38% | -59% | 0.24 µM |  |  |  |
| Cc1cc(C(C)(C)C)c(OC(=O)NS(=O)(=O)Oc2c(C(C)C)cccc2C(C)C)c(C(C)(C)C)c1 | 205% | -66% |  | 7.7 µM | -52% | -72% |  |
| CCCN(CCC)S(=O)(=O)NC(=O)Nc1c(C(C)C)cccc1C(C)C | 78% | -53% |  | 1.1 µM | -51% | -60% |  |
| CC(C)c1cccc(C(C)C)c1NS(=O)(=O)NC(=O)Oc1c(C(C)(C)C)cccc1C(C)(C)C | 200% |  | -57% | 16.8 µM |  |  | -28% |
| CC(C)(C)c1cccc(C(C)(C)C)c1OC(=O)NS(=O)(=O)NCC(c1ccccc1)c1ccccc1 |  |  | -32% | 21.8 µM |  |  |  |
| CC(C)c1cccc(C(C)C)c1NC(=O)NS(=O)(=O)N(Cc1ccccc1)Cc1ccccc1 | 183% | -28% |  | 2.2 µM | -18% | -36% |  |
| COc1cccc(OC)c1OS(=O)(=O)NC(=O)Oc1c(C(C)C)cccc1C(C)C | 208% | -62% |  | > 50 µM | -63% | -70% |  |
| CC(C)c1ccc(C(C)C)c(NC(=O)NS(=O)(=O)Oc2c(C(C)C)cccc2C(C)C)c1 | 5% | -43% |  | 8.7 µM | -1% | -43% |  |
| CC(C)c1cc(C(C)C)c(OS(=O)(=O)NC(=O)Oc2c(C(C)C)cccc2C(C)C)c(C(C)C)c1 | 295% | -61% |  | 29 µM | -63% | -67% |  |
| CC(C)c1cccc(C(C)C)c1NS(=O)(=O)NC(=O)Oc1c(C(C)C)cccc1C(C)C | 388% | -9% | -65% | 25.8 µM |  |  |  |
| CC(C)c1cc(C(C)C)c(OC(=O)NS(=O)(=O)Oc2c(C(C)C)cc(C(C)C)cc2C(C)C)c(C(C)C)c1 | 129% | -62% |  | 22 µM | -32% | -65% |  |
| CC(C)(C)c1cccc(C(C)(C)C)c1OC(=O)NS(=O)(=O)Nc1ccccc1 |  |  | -26% | 19 µM |  |  |  |
| CC(C)c1cccc(C(C)C)c1OC(=O)NS(=O)(=O)Nc1nc2ccccc2[nH]1 |  |  | 8% | 52 µM |  |  |  |
| COc1cc(OC)c(OS(=O)(=O)NC(=O)Oc2c(C(C)C)cccc2C(C)C)c(OC)c1 | 62% | -37% |  | > 50 µM | -37% | -61% |  |
